pIC50: −log10 of the molar value. “And” between values parts separate entries of the source, which are not always exact repeats. Equal entries are not always repeated. Where two headings read alike, the source gives them in different places.
Experiments:
SARS-CoV-2 (KCDC03) = test: Half-maximal viral inhibitory concentration (IC50), immunofluorescence of virus-positive cells; settings: for SI (CC50/IC50): SARS-CoV-2 (KCDC03); for pIC50: Vero E6 cells, MOI 0.01 ffu/cell, drug added after 18 hours, additional 18 hours
[1] = test system: SARS-COV-2 strain KCDC03, KDCA51463, or KDCA55905; test: Proliferation of SARS-CoV-2 in various cultured cells; assay type: cell-based; settings: Vero E6, Caco-2, Calu-3 cells (FIGS. 21a to 21f); vs solvent (vehicle)
[2] = test system: Porcine epidemic diarrhea coronavirus (QIAP1401); settings: for pIC50: Vero E6 cells, MOI 0.01 ffu/cell, drug added after 18 hours, additional 18 hours
[3] = test system: Porcine sapovirus (Cowden); settings: for SI (CC50/IC50): Porcine sapovirus (Cowden); for pIC50: LLC-PK cells, MOI 0.01 ffu/cell, drug added after 18 hours, additional 18 hours
[4] = test system: Species A Rotavirus (NCDV); settings: for SI (CC50/IC50): Species A Rotavirus (NCDV); for pIC50: MA104 cells, MOI 0.01 ffu/cell, drug added after 12 hours, additional 12 hours
[5] = test system: Bovine coronavirus (KWD20); settings: for SI (CC50/IC50): Bovine coronavirus (KWD20); for pIC50: HRT-18G cells, MOI 0.01 ffu/cell, drug added after 18 hours, additional 18 hours
[6] = test system: influenza A virus PR8 strain; test: Proliferation of influenza A virus in MRC-5, NCI-H293, WI-38, and Calu-3 cells; assay type: cell-based; settings: MRC-5, NCI-H293, WI-38, Calu-3 cells; 1, 10, 20 μM; vs solvent (vehicle)
[7] = test system: SARS-COV-2, IAV, BCOV, PEDV, RVA, PRRSV, and PSaV; test: Viral genome copy (real-time PCR) and progeny virus production in cells infected with seven RNA viruses; assay type: cell-based; settings: 1, 10, and 20 μM; dose-dependent, all seven viruses
From the text: Subsequently, each well was washed three times with phosphate-buffered saline, followed by the addition of the respective viral culture media.
Subsequently, each plate underwent three cycles of freezing and thawing to detach the cells from each well for subsequent experiments.
To analyze the inhibitory effects of atglistatin and CAY10499 on the genome copies of each virus, RNA was extracted using the RNeasy mini kit (Qiagen). The extracted RNA was then used to synthesize cDNA using the TOPscript™ cDNA Synthesis kit (Enzynomics), which includes random hexamer and poly(rA)-oligo(dT). Afterward, real-time PCR was performed on the synthesized cDNA in the TOPreal™ qPCR 2× PreMix (Enzynomics) solution in the presence of specific primers for SARS-COV-2 nucleocapsid (N), influenza A virus PB1, bovine coronavirus spike (S), porcine epidemic diarrhea coronavirus nucleocapsid (N), bovine species A rotavirus VP6, porcine reproductive and respiratory syndrome virus matrix (M), and porcine sapovirus VPg, using the LineGene 9600 Plus Real-time PCR detection system (Bioer, Hangzhou, China).
To analyze the inhibitory effects of atglistatin and CAY10499 on the production of progenies of the viruses, the supernatant obtained after three cycles of freezing and thawing was serially ten-fold diluted. […] After adsorption, each well was washed twice with phosphate-buffered saline (pH 7.4), followed by the addition of the respective culture media.
Then, after removal of the supernatants, the cells were fixed with 4% paraformaldehyde for 15 minutes and each well was washed thrice with phosphate-buffered saline and treated with 0.2% Triton X-100 at 20° C. for 10 minutes.
After three washes with phosphate-buffered saline, the wells were treated with 100- to 200-fold diluted primary antibodies to the spike protein of SARS-COV-2, the nucleoprotein protein of influenza A virus, the spike protein of bovine coronavirus, the nucleocapsid protein of porcine epidemic diarrhea coronavirus, the VP6 protein of bovine species A rotavirus, the matrix protein of porcine reproductive and respiratory syndrome virus, and the VPg protein of porcine sapovirus, respectively, and applied to a refrigerator at 4° C. for 12 hours.
Subsequently, the supernatant was removed, and each well was washed thrice with phosphate-buffered saline, followed by incubation with a 100- to 200-fold dilution of a secondary antibody conjugated with Alexa Fluor 488 or fluorescein isothiocyanate at room temperature for 2 hours.
Each virus was allowed to adsorb onto the cells which were then cultured in a freshly changed medium containing DABPU-EM or DABPU-DE. Thereafter, the cells were detached from the wells for subsequent experiments.

[8] = test system: Porcine respiratory reproductive syndrome virus (LMY); settings: for SI (CC50/IC50): Porcine respiratory reproductive syndrome virus (LMY); for pIC50: MARC-145 cells, MOI 0.01 ffu/cell, drug added after 18 hours, additional 18 hours
[9] = test system: Porcine sapovirus (Cowden); test: microbe, parasite or virus in culture; settings: Sapporo virus, LLCPK, 18 h
[10] = test system: influenza A virus PR8 strain; test: Influenza A virus-infected mice treated with lipase inhibitor; assay type: in vivo, C57BL/6J mice; settings: for survival rate: 15 days observation; for free fatty acids and glycerol concentrations in lung tissues / progeny virus numbers in lung tissues / virus gene numbers in lung tissues: 5 mg/kg/day for 4 days, sixth day post-infection; for lung lesions, including interstitial pneumonia, and number of virus-positive cells / number of lipid droplets in bronchiolar epithelial cells / viral antigen in the bronchiolar epithelial cells: 5 mg/kg/day, vs untreated virus-inoculated group; for survival rate, weight loss, and clinical symptoms: 0.01 to 10 mg/kg/day, dose-dependent
Experimental: For use in verifying the antiviral effect of lipase inhibition in animals infected with influenza A virus, 150 mg/ml of atglistatin and 150 mg/ml of CAY10499 were dissolved in DMSO. To evaluate the antiviral effect depending on the concentration, the drugs were prepared at concentrations of 1.000, 0.500, 0.100, 0.010, and 0.001 mg/ml. […] The drugs were completely dissolved by vortexing.
For evaluating the antiviral efficacy of CAY10499, mouse groups were prepared in the same manner with the exception of using CAY10499 instead of atglistatin.
Influenza A virus inoculation was carried out on anesthetized mice via an intranasal route at 1,000 PFU per mouse, following the same procedure as above. In cases where the virus was not injected, only phosphate-buffered saline was administered. Observations were made for 15 days, during which survival rates, body weight, and clinical symptoms were monitored and recorded daily. […] Drug treatment began two days after the inoculation of influenza A virus.
The survival rate, which was 100% with a 0% mortality rate on day 0 of the infection, was measured daily over 15 days, and compared with the survival rate of the virus-injected and untreated group. Statistical significance was analyzed using the Log Rank Test, with a p value of 0.05 or […] considered significant.
Each group consisted of four seven-week-old female wild-type C57BL/6J mice, acclimatized for one week, and used in the experiment at eight weeks of age.
Mice were inoculated with influenza A virus PR8 strain in the same manner as described above, and drug treatment was conducted for 4 days, starting from the second day post-infection. On the sixth day post-infection, the mice were euthanized for autopsy.
These tissues were assayed for free fatty acid levels.
To evaluate lipid droplets and influenza A virus antigen in the lung tissues, the fixed tissues were prepared into 3-μm-thick frozen sections. […] After washing, the sections were mounted with Slow-Fade Gold antifade reagent for nucleus staining.
The sections were then finely cut at 3 μm thickness, deparaffinized in xylene, and rehydrated through graded alcohols and water. […] Histological examination was then performed using an optical microscope.
Immunohistochemistry was performed for influenza A virus antigens in the lung tissue.

[11] = test system: Influenza A virus (H1N1) (PR8)
[12] = Porcine epidemic diarrhea coronavirus (QIAP1401)
[13] = 5 mg kg^−1 day^−1 intraperitoneally for four days from day 2 post infection
[14] = 10 mg kg^−1 day^−1 intraperitoneally for four days from day 2 post infection, control 100% mortality

SMILES	SI (CC50/IC50) (SARS-CoV-2 (KCDC03))	pIC50 (SARS-CoV-2 (KCDC03))	number of viral genome copies [1]	SI (CC50/IC50) [2, 12]	SI (CC50/IC50) [3]	SI (CC50/IC50) [4]	SI (CC50/IC50) [5]	progeny virus number [6]	viral genome copy number [6]	copies of genomes of each virus [7]	production of progenies of each virus [7]	SI (CC50/IC50) [8]	free fatty acids and glycerol concentrations in lung tissues [10]	progeny virus numbers in lung tissues [10]	virus gene numbers in lung tissues [10]	lung lesions, including interstitial pneumonia, and number of virus-positive cells [10]	number of lipid droplets in bronchiolar epithelial cells [10]	viral antigen in the bronchiolar epithelial cells [10]	survival rate [10, 14]	survival rate, weight loss, and clinical symptoms [10]	further results
CN(C)C(=O)Nc1cccc(-c2ccc(N(C)C)cc2)c1 [Atglistatin, 3-(4′-(dimethylamino)-(1,1′-biphenyl)-3-yl)-1,1-dimethylurea]	154	5.83	significantly reduced	116	72	32	152	significantly reduced	significantly reduced	reduced	reduced	84	significant decrease	significant decrease	significant decrease	alleviation and reduction	did not decrease significantly	significant reduction	60% and 62.5%	improvement	pIC50 [9]: 5.51; survival rate [10, 13]: 62.5%; SI (CC50/IC50) ([11]; Influenza A virus (H1N1) (PR8)): 251
COc1nn(-c2ccc(NC(=O)OCc3ccccc3)c(C)c2)c(=O)o1 [CAY10499]	62	5.81			8	4	11			reduced	reduced	21	significant decrease	significant decrease	significant decrease	alleviation and reduction	did not decrease significantly	significant reduction	50%	improvement	SI (CC50/IC50) [2]: 30; pIC50 [2]: 5.50; pIC50 [3]: 4.93; pIC50 [4]: 4.68; pIC50 [5]: 5.14; pIC50 [8]: 5.38; pIC50 [11]: 5.38; SI (CC50/IC50) [11]: 27
CCN(C)C(=O)Nc1cccc(-c2ccc(N(C)C)cc2)c1 [DABPU-EM, 3-(4′-(dimethylamino)-(1,1′-biphenyl)-3-yl)-1-ethyl-1-methylurea]	122	5.77	significantly reduced	108	62	32	54	significantly reduced	significantly reduced	reduced	reduced	78	significantly reduced	significantly reduced	significantly reduced	alleviation and reduction	no significant decrease	significantly decreasing	50%	improvement	pIC50 [9]: 5.43; SI (CC50/IC50) ([11]; Influenza A virus (H1N1) (PR8)): 127
CCN(CC)C(=O)Nc1cccc(-c2ccc(N(C)C)cc2)c1 [DABPU-DE]	185	5.92	significantly reduced	128	81	36	158	significantly reduced	significantly reduced	reduced	reduced	95	significantly reduced	significantly reduced	significantly reduced	alleviation and reduction	no significant decrease	significantly decreasing	68.8%	improvement	pIC50 [2]: 5.79; pIC50 [3]: 5.56; pIC50 [4]: 5.28; pIC50 [5]: 5.95; pIC50 [8]: 5.64; survival rate [10, 13]: 68.8%; SI (CC50/IC50) ([11]; Influenza A virus (H1N1) (PR8)): 207; pIC50 ([11]; […], drug added after 12 hours, additional 12 hours): 5.99

— patent US20240285557A1, “PHARMACEUTICAL COMPOSITION COMPRISING LIPASE INHIBITOR FOR TREATMENT OR TREATMENT OF RNA VIRAL INFECTIONS” (priority 2021, published 2024)
